Experimental data reported in ChEMBL document CHEMBL1151036, “Synthesis and HIV-1 inhibition of novel benzimidazole derivatives” (Bioorg Med Chem Lett, 1995).

Tests used:
C8166 [1] = assay: Compound was tested for toxicity against HIV-111B in C8166 cells; format: functional; conditions: Homo sapiens, read-out: TC50 (the source's name)
[2] = target: Human immunodeficiency virus type 1 reverse transcriptase (Human immunodeficiency virus 1) (UniProt Q72547); assay: Concentration required for inhibition of HIV-1 reverse transcriptase (RT)
[3] = target: Human immunodeficiency virus type 1 reverse transcriptase (Human immunodeficiency virus 1) (UniProt Q72547); assay: Compound was tested for % inhibition of HIV-1 reverse transcriptase (RT); conditions: concentration not given here
C8166 [4] = assay: Inhibitory activity against HIV-111B in C8166 cells; format: functional, cell-based; conditions: Homo sapiens
[5] = Selectivity ratio of TC50 to that of EC50; format: functional
[6] = Selectivity ratio of TC50 to that of EC50; value ranges from 33-50; format: functional
C8166 [7] = assay: Compound was tested for toxicity against HIV-111B in C8166 cells; value ranges from 20-30 uM; format: functional; conditions: Homo sapiens, read-out: TC50 (the source's name)
[8] = Selectivity ratio of TC50 to that of EC50; value ranges from 12.5-19; format: functional

Concentration [2] [µM] | inhibition [3] [%] | EC50 (C8166 [4]) [µM] | SMILES | CC50 (C8166 [1]) [µM] | Ratio [5] | Ratio [6] | CC50 (C8166 [7]) [µM] | Ratio [8]
0.16 | 50 | 0.002 | CC(C)=CCN1Cc2cc(Cl)cc3[nH]c(=S)n(c23)C[C@@H]1C | 62 | 31000 | – | – | –
– | – | 3.2 | CCCOn1c(CC)nc2ccc(OC)cc21 | 100 | 31 | – | – | –
10 | 50 | 0.6 | CCCOn1c(CC)nc2ccc(Cl)cc21 | 40 | 67 | – | – | –
– | – | 4 | CCCn1c(SC)nc2c(C)cccc21 | 100 | 25 | – | – | –
– | – | 2 | CCCOn1c(CC)nc2ccccc21 | 100 | – | 33 | – | –
– | – | 1.6 | CCCOn1c(CC)nc2ccc(C)cc21 | – | – | – | 20 | 12.5
100 | 66 | 6 | CCCOn1c(CC)nc2c(C)cccc21 | 1000 | 167 | – | – | –
– | – | – | Cc1cn([C@H]2C[C@H](N=[N+]=[N-])[C@@H](CO)O2)c(=O)[nH]c1=O [ZIDOVUDINE] | > 1000 | – | – | – | –
– | – | 8 | CCCn1c(SC)nc2c(CBr)cccc21 | 80 | 10 | – | – | –
